Measured values from patent publication US20230406883A1, “COMPOUNDS AND THEIR USE IN TREATMENT OF TACHYKININ RECEPTOR MEDIATED DISORDERS” (Embark Biotech ApS, priority 2020, published 2023).
“And” between values parts separate entries of the source, which are not always exact repeats. Equal entries are not always repeated. Numbered stars: 1 amine (or outer) side, 2 acyl side, 3 side chain; on linkers, the order of the positions; unused ones are H or OH. Square brackets hold non-standard residues; d marks the D form. Peptide text beside a SMILES is read from it. * marks the point of attachment. C20 diacid = O=C(O)CCCCCCCCCCCCCCCCCCC(=O)*; C18 diacid = O=C(O)CCCCCCCCCCCCCCCCC(=O)*; C16 diacid = O=C(O)CCCCCCCCCCCCCCC(=O)*; γGlu = O=C(O)[C@H](CCC(=O)[*:2])N[*:1]; Conj‑Neu‑C18DA = not defined here; Cha = N[C@@H](CC1CCCCC1)C(=O)O; NMeL = CN[C@@H](CC(C)C)C(=O)O; Nle = CCCC[C@H](N)C(=O)O; AEEA = NCCOCCOCC(=O)O; Aib = CC(C)(N)C(=O)O

Legend:
Test in all cases: IP3 assay (inositol trisphosphate, 3H-myoinositol) in transiently transfected COS-7 cells
Format in all cases: cell-based
[1] = biological target: T1, hNK3R (Homo sapiens, UniProt P29371); conditions: for EC50 / hNK3, IP3 Efficacy: COS-7 cells; for EC50: 0.2% ovalbumin buffer, read-out: hNK3, IP3 EC50; for hNK3, IP3 Efficacy: figure legends: percent of 10^-6 M NKA
T1 construct: host or cells: COS-7
T1 sequence (P29371 1-465): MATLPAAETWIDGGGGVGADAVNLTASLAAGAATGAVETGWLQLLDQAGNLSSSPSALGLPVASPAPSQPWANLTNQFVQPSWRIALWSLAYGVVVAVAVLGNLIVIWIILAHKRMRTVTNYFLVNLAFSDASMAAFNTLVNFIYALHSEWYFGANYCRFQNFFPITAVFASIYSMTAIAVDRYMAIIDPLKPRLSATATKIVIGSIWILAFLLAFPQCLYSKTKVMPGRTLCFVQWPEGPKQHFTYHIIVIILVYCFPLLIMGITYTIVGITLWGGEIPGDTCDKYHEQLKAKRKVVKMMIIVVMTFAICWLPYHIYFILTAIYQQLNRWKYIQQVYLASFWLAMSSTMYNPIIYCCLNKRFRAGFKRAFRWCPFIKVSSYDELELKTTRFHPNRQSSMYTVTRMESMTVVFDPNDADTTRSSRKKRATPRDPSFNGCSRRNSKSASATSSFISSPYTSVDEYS
Protocol: (§1) Agonist-induced G-protein coupled receptor (GPCR) activation was measured by an Inositol-1,4,5-Trisphosphate [^3H] Radioreceptor Assay (IPs Assay). Assays were carried out using COS-7 cells transiently transfected by calcium phosphate transfection with a vector pcDNA3.1(+) encoding one of the indicated receptors (Genscript). Briefly, DNA mixed with CaCl2 (2 M) and TE-buffer (10 mM Tris-HCl, 1 mM EDTA, pH 7.5) was dropwise added to 2×HBS (50 mM HEPES, 280 mM NaCl, 1.5 mM NaH2PO4, pH 7.2) and incubated for 45 min at room temperature (22±2° C.). The mixture and a final concentration of 100 μM Chloroquine were added to the cells and left to incubate for 5 hours at 37° C. under standard cell culture conditions (10% CO2) before changing medium to fresh medium containing 5 μl/mL Myo-[2-^3H(N)]-inositol (labelling medium).
(§2) The IP3 assay takes advantage of the tachykinin receptors' ability to induce production of the inositol trisphosphate (IP3) second messenger upon agonist (ligand) binding on receptor expressing cells following an initial ^3H-inositol labelling period. In effect this means that production of the second messenger IP3 as a measure of receptor activity can be assessed by counting ^3H-activity.
(§3) Assay solutions used: Wash buffer (HBSS), Assay buffer (HBSS+10 mM LiCl and 0,2% w/v ovalbumin), Lysis buffer (10 mM formic acid), and SPA YSI beads (12.5 mg/ml in H2O). The assay was performed the day after transfection. Briefly, labelling medium was aspirated, and plates were washed ×1 in wash buffer before adding 100 μl assay buffer, pre-incubated for 30 min followed by 120 min incubation with agonist, both at 37° C. After incubation, plates were immediately placed on ice and the incubation medium was aspirated and 40 μl of 10 mM formic acid per well was added. Plates were incubated for at least 30 min on ice. 60 μl (1 mg/well) SPA YSI beads/well was pipetted into a solid white 96 wells plate and 35 μl of the lysis solution was transferred to the plate before covering plates with seal cover and shaking for 10 min. (max speed). Centrifuge plates and leave for 8 hours at room temperature before counting the plates in a MicroBeta plate counter (Perkin Elmer).

[2] = biological target: T2, hNK2R (Homo sapiens, UniProt P21452); conditions: for EC50 / hNK2R, IP3 Efficacy: COS-7 cells; for EC50: 0.2% ovalbumin buffer; for hNK2R, IP3 Efficacy: figure legends: percent of 10^-6 M NKA
T2 construct: host or cells: COS-7
T2 sequence (P21452 1-398): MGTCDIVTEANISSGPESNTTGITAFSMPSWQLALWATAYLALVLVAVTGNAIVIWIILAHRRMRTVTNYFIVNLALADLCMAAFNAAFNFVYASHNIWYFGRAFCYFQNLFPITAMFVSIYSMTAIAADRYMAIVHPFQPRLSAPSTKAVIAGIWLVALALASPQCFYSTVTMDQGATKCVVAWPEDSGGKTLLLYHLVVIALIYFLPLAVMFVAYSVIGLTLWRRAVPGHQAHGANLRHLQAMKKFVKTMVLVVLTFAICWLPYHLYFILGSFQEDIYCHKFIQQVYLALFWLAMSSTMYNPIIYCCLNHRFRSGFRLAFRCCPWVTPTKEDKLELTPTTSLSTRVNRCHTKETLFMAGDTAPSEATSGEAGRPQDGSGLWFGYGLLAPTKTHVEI
Protocol: as §1, §2, §3

[3] = biological target: T3, hNK1R (Homo sapiens, UniProt P25103); conditions: for EC50 / hNK1R, IP3 Efficacy: COS-7 cells; for EC50: 0.2% ovalbumin buffer; for hNK1R, IP3 Efficacy: figure legends: percent of 10^-6 M NKA
T3 construct: host or cells: COS-7
T3 sequence (P25103 whole entry): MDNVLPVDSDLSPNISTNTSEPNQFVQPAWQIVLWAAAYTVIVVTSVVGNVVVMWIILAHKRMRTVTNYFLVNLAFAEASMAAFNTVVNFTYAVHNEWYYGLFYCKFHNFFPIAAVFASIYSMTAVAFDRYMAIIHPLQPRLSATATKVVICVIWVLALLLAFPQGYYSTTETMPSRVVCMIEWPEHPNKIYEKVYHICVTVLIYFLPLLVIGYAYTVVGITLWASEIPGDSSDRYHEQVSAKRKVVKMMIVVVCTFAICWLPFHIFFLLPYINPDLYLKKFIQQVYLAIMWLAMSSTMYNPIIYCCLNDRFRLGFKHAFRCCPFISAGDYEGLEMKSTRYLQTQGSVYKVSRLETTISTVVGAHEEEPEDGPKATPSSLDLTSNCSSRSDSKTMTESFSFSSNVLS
Protocol: as §1, §2, §3

CCCC[C@H](NC(=O)[C@H](CC(C)C)N(C)C(=O)CNC(=O)[C@@H](NC(=O)[C@H](Cc1ccccc1)NC(=O)[C@H](CCCCN)NC(=O)[C@H](CCC(=O)O)NC(=O)COCCOCCNC(=O)COCCOCCNC(=O)CC[C@H](NC(=O)CCCCCCCCCCCCCCCCC(=O)O)C(=O)O)C(C)C)C(N)=O [compound 335, *Glu;Lys;Phe;Val;Gly;NmLeu;Nle;NH2] ({C18 diacid-γGlu-AEEA-AEEA}-EKFVG[NMeL][Nle]-NH2)
EC50 [1]: 113 nM
hNK3, IP3 Efficacy [1]: 100%
EC50 [2]: 1.6 nM
hNK2R, IP3 Efficacy [2]: 80%
EC50 [3]: 36 nM
hNK1R, IP3 Efficacy [3]: 70% and 72%

CCCC[C@H](NC(=O)[C@H](CC(C)C)N(C)C(=O)CNC(=O)[C@@H](NC(=O)[C@H](Cc1ccccc1)NC(=O)[C@H](CCCCNC(=O)COCCOCCNC(=O)COCCOCCNC(=O)CC[C@H](NC(=O)CCCCCCCCCCCCCCCCC(=O)O)C(=O)O)NC(=O)[C@@H](N)CC(=O)O)C(C)C)C(N)=O [compound 307, Asp;Lys*;Phe;Val;Gly;NmLeu;Nle;NH2]
EC50 [1]: ~12000 nM
hNK3, IP3 Efficacy [1]: 85%
EC50 [2]: 24 nM
hNK2R, IP3 Efficacy [2]: 80%
hNK1R, IP3 Efficacy [3]: 64%

CCCC[C@H](NC(=O)[C@H](CC(C)C)N(C)C(=O)CNC(=O)[C@@H](NC(=O)[C@H](Cc1ccc(O)cc1)NC(=O)[C@H](CCCCN)NC(=O)[C@H](CC(=O)O)NC(=O)COCCOCCNC(=O)COCCOCCNC(=O)CC[C@H](NC(=O)CCCCCCCCCCCCCCC(=O)O)C(=O)O)C(C)C)C(N)=O [compound 367, *Asp;Lys;Tyr;Val;Gly;NmLeu;Nle;NH2] ({C16 diacid-γGlu-AEEA-AEEA}-DKYVG[NMeL][Nle]-NH2)
hNK3, IP3 Efficacy [1]: 0%
EC50 [2]: 5.6 nM
hNK2R, IP3 Efficacy [2]: 75%
EC50 [3]: ~31000 nM
hNK1R, IP3 Efficacy [3]: 20%

CCCC[C@H](NC(=O)[C@H](CC(C)C)N(C)C(=O)CNC(=O)[C@@H](NC(=O)[C@H](Cc1ccccc1)NC(=O)[C@H](CCCNC(=N)N)NC(=O)[C@H](CCC(=O)O)NC(=O)COCCOCCNC(=O)COCCOCCNC(=O)CC[C@H](NC(=O)CCCCCCCCCCCCCCCCC(=O)O)C(=O)O)C(C)C)C(N)=O [compound 337, *Glu;Arg;Phe;Val;Gly;NmLeu;Nle;NH2] ({C18 diacid-γGlu-AEEA-AEEA}-ERFVG[NMeL][Nle]-NH2)
EC50 [1]: 43 nM
hNK3, IP3 Efficacy [1]: 100%
EC50 [2]: 4 nM and 1.3 nM
hNK2R, IP3 Efficacy [2]: 80%
EC50 [3]: 23 nM
hNK1R, IP3 Efficacy [3]: 70%

CCCC[C@H](NC(=O)[C@H](CC(C)C)N(C)C(=O)CNC(=O)[C@H](CCCNC(=N)N)NC(=O)[C@H](Cc1ccccc1)NC(=O)[C@H](CCCCN)NC(=O)[C@H](CCC(=O)O)NC(=O)COCCOCCNC(=O)COCCOCCNC(=O)CC[C@H](NC(=O)CCCCCCCCCCCCCCCCC(=O)O)C(=O)O)C(N)=O [compound 315, *Glu;Lys;Phe;Arg;Gly;NmLeu;Nle;NH2] ({C18 diacid-γGlu-AEEA-AEEA}-EKFRG[NMeL][Nle]-NH2)
hNK3, IP3 Efficacy [1]: 0%
EC50 [2]: 47 nM
hNK2R, IP3 Efficacy [2]: 60%
hNK1R, IP3 Efficacy [3]: 0%

CCCC[C@H](NC(=O)[C@H](CC(C)C)NC(=O)C(C)(C)NC(=O)[C@@H](NC(=O)[C@H](Cc1ccccc1)NC(=O)[C@H](CCCCN)NC(=O)[C@H](CC(=O)O)NC(=O)COCCOCCNC(=O)COCCOCCNC(=O)CC[C@H](NC(=O)CCCCCCCCCCCCCCCCC(=O)O)C(=O)O)C(C)C)C(N)=O [compound 373, *Asp;Lys;Phe;Val;Aib;Leu;Nle;NH2] ({C18 diacid-γGlu-AEEA-AEEA}-DKFV[Aib]L[Nle]-NH2)
hNK3, IP3 Efficacy [1]: 0%
EC50 [2]: 4.3 nM
hNK2R, IP3 Efficacy [2]: 89%
EC50 [3]: ~136 nM
hNK1R, IP3 Efficacy [3]: 66%

CC(C)C[C@@H](C(=O)N[C@@H](CC1CCCCC1)C(N)=O)N(C)C(=O)CNC(=O)[C@@H](NC(=O)[C@H](Cc1ccc(O)cc1)NC(=O)[C@H](CCCCN)NC(=O)[C@H](CC(=O)O)NC(=O)COCCOCCNC(=O)COCCOCCNC(=O)CC[C@H](NC(=O)CCCCCCCCCCCCCCCCC(=O)O)C(=O)O)C(C)C [compound 313, *Asp;Lys;Tyr;Val;Gly;NmLeu;cHexAla;NH2] ({C18 diacid-γGlu-AEEA-AEEA}-DKYVG[NMeL][Cha]-NH2)
hNK3, IP3 Efficacy [1]: 0%
EC50 [2]: 23 nM
hNK2R, IP3 Efficacy [2]: 70%
hNK1R, IP3 Efficacy [3]: 20%

CCCC[C@H](NC(=O)[C@H](CC(C)C)N(C)C(=O)CNC(=O)[C@@H](NC(=O)[C@H](Cc1ccc(O)cc1)NC(=O)[C@H](CCCCN)NC(=O)[C@H](CC(=O)O)NC(=O)COCCOCCNC(=O)COCCOCCNC(=O)CC[C@H](NC(=O)CCCCCCCCCCCCCCCCCCC(=O)O)C(=O)O)C(C)C)C(N)=O [compound 380, *Asp;Lys;Tyr;Val;Gly;NmLeu;Nle;NH2] ({C20 diacid-γGlu-AEEA-AEEA}-DKYVG[NMeL][Nle]-NH2)
EC50 [1]: ~160 nM
hNK3, IP3 Efficacy [1]: 30%
EC50 [2]: 1.5 nM
hNK2R, IP3 Efficacy [2]: 90%
EC50 [3]: 58 nM
hNK1R, IP3 Efficacy [3]: 20%

CCCC[C@H](NC(=O)[C@H](CC(C)C)NC(=O)[C@@H](CO)NC(=O)[C@@H](NC(=O)[C@H](Cc1ccccc1)NC(=O)[C@H](CCCCN)NC(=O)[C@H](CC(=O)O)NC(=O)COCCOCCNC(=O)COCCOCCNC(=O)CC[C@H](NC(=O)CCCCCCCCCCCCCCCCC(=O)O)C(=O)O)C(C)C)C(N)=O [compound 385, *Asp;Lys;Phe;Val;dSer;Leu;Nle;NH2] ({C18 diacid-γGlu-AEEA-AEEA}-DKFV[dS]L[Nle]-NH2)
hNK3, IP3 Efficacy [1]: 0%
EC50 [2]: 4.5 nM
hNK2R, IP3 Efficacy [2]: 46%
hNK1R, IP3 Efficacy [3]: 0%

*Asp;Lys;Pro;Val;Gly;NmLeu;Nle;NH2 ({Conj‑Neu‑C18DA}-DKPVG[NMeL][Nle]-NH2; reading uncertain; also: printed as *Asp;Lys;Pro;Val;Gly;NmLeu;Nle;NH2) [compound 362, * is Conj-Neu-C18DA protractor on N-terminal α-amino group]
hNK3R receptor activation, in words [1]: complete loss of receptor activation on NK1-3Rs
hNK3, IP3 Efficacy [1]: 0%
hNK2R receptor activation, in words [2]: complete loss of receptor activation on NK1-3Rs
hNK2R, IP3 Efficacy [2]: 0%
hNK1R receptor activation, in words [3]: complete loss of receptor activation on NK1-3Rs
hNK1R, IP3 Efficacy [3]: 0%

COc1ccc(C[C@H](NC(=O)[C@H](CC(C)C)N(C)C(=O)CNC(=O)[C@@H](NC(=O)[C@H](Cc2ccccc2)NC(=O)[C@H](CCCCN)NC(=O)[C@H](CC(=O)O)NC(=O)COCCOCCNC(=O)COCCOCCNC(=O)CC[C@H](NC(=O)CCCCCCCCCCCCCCCCC(=O)O)C(=O)O)C(C)C)C(N)=O)cc1 [compound 370, *Asp;Lys;Phe;Val;Gly;NmLeu;4-MeOPhe;NH2] ({C18 diacid-γGlu-AEEA-AEEA}-DKFVG[NMeL]Y(Me)-NH2)
hNK3, IP3 Efficacy [1]: 0%
EC50 [2]: 10 nM
hNK2R, IP3 Efficacy [2]: 90%
hNK1R, IP3 Efficacy [3]: 20%
